Measurements taken from ChEMBL document CHEMBL1147471, “Selecting against S1P3 enhances the acute cardiovascular tolerability of 3-(N-benzyl)aminopropylphosphonic acid S1P receptor agonists” (Bioorg Med Chem Lett, 2004).

Key:
in vivo [1] = settings: rat, iv, 1 mg/kg
in vivo [2] = settings: rat, plasma, iv, 1 mg/kg
in vivo [3] = settings: rat, iv, 1 mg/kg; remark: listed apart in the source

Question: For `CCCCCCCCOc1c(Br)cc(CNCCCP(=O)(O)O)cc1OC`, which half-life (in vivo [1]) is on record?
Answer: Its half-life is 2.1 h.

Question: What about the clearance (in vivo [2]) of the same molecule?
Answer: The clearance was 9.2 mL/min/kg.

Question: What about the Vd (in vivo [3]) of the same molecule?
Answer: Its Vd is 1.4 L/kg.
